# Where a name gives a salt, the structure may show the parent alone.
# Assays:
# [1] = molecular target: T1, human D3 receptor (Homo sapiens, UniProt P35462); experiment: inhibition of [^3 H]spiperone binding to the human D3 receptor; details: read-out: Dopamine Receptor Binding (Ki, nM) D3
# T1 construct: expressed in transfected cells
# Procedure: (§1) Compounds of Formula I were tested for their ability to bind to dopamine receptors as measured by their inhibition of [^3 H]spiperone binding to the human D2 and D3 receptors in an assay described by MacKenzie R. G., VanLeeuwen D., Pugsley T. A., et al., "Characterization of the human dopamine D3 receptor expressed in transfected cell lines." Eur. J. Pharmacol.-Mol. Pharmacol., 1994;266:79-85; for the human D4 dopamine receptor in an assay described by Pugsley T. A., David M. D., Akunne H. C., et al., "CI-1007, a dopamine partial agonist and potential antipsychotic agent. I. Neurochemical Effects." J. Pharmacol. Exp. Ther., 1995;274:898-911; and for ability to block the action of an agonist in a [^3 H]thymidine incorporation assay described by Lajiness N. E., Chio C. L., Huff R. M., "D2 dopamine receptor stimulation of mitogenesis in transfected Chinese hamster ovary cells: relationship to dopamine stimulation of tyrosine phosphorylations." J. Pharmacol. Exp. Ther., 1993;267:1573-81. This test determines the agonist/antagonist character of a compound by measuring [^3 H]thymidine uptake in Chinese hamster ovary (CHO) pro-5 cells expressing the dopamine D4 receptor. Agonists, such as quinpirole, promote cell growth and subsequent [^3 H]thymidine incorporation, while antagonists block the action of agonists. […] The above articles are incorporated herein by reference for their assay methodology.
# [2] = molecular target: T2, human D4 dopamine receptor (Homo sapiens, UniProt P21917); experiment: inhibition of [^3 H]spiperone binding to the human D4 dopamine receptor
# T2 construct: expressed in transfected cells
# T2 sequence (P21917 1-419): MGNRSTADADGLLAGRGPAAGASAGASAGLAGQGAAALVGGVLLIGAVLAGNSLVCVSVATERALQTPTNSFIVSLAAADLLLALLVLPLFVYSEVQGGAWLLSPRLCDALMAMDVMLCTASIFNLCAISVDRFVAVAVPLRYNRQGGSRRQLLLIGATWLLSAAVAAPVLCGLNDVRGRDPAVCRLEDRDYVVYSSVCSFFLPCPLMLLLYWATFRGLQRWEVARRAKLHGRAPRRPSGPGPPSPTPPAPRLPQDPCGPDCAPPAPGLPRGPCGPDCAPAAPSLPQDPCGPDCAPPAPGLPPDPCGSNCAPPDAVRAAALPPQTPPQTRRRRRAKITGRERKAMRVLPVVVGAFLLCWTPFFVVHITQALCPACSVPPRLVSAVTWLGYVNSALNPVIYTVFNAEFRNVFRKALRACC
# Procedure: as §1
# [3] = molecular target: T3, human D2 receptor (Homo sapiens, UniProt P14416); experiment: inhibition of [^3 H]spiperone binding to the human D2 receptor; details: read-out: Dopamine Receptor Binding (Ki, nM) D2
# T3 construct: expressed in transfected cells
# Procedure: as §1
# [4] = system: dopamine D4 receptor; details: D4 vs D2; cited from earlier work
# [5] = system: schizophrenia; details: in vivo; cited from earlier work
# T1 sequence (P35462 whole entry): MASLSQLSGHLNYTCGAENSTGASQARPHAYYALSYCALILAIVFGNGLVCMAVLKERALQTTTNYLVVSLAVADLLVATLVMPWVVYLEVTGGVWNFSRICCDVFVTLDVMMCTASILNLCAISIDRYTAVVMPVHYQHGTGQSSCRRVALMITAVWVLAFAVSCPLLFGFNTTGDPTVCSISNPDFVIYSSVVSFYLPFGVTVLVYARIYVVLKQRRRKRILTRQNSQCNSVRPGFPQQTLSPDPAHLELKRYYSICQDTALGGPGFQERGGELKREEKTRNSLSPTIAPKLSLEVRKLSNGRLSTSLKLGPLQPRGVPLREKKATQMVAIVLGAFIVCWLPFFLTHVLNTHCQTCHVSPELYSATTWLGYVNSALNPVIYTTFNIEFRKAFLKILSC
# T3 sequence (P14416 whole entry): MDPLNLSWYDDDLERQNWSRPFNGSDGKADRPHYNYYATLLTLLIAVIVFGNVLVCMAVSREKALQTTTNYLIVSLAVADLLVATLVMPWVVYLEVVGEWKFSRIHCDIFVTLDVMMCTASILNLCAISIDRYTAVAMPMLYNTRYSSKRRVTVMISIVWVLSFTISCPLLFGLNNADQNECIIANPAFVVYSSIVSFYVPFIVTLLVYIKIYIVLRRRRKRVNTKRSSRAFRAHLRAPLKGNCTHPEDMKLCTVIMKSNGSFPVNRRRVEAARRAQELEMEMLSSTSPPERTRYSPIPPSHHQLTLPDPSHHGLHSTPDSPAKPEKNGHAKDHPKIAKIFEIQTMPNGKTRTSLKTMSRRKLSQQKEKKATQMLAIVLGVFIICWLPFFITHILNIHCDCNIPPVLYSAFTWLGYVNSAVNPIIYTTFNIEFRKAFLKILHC
Compound,Ki [1],Ki [2],Ki [3],also measured
"COc1ccc2c3c(c(=O)oc2c1)CN(Cc1ccccc1)CC3 [Example 1, 3-Benzyl-8-methoxy-1,2,3,4-tetrahydro-chromeno[3,4-c]-pyridin-5-one]",60 nM,1.5 nM,–,–
"COc1ccc2c3c(c(=O)oc2c1)CN(Cc1ccc(C)cc1)CC3 [Example 3, 8-Methoxy-3-(4-methyl-benzyl)-1,2,3,4-tetrahydro-chromeno[3,4-c]pyridin-5-one]",491 nM,2.6 nM,–,–
"COc1ccc2c3c(c(=O)oc2c1)CN(Cc1ccc(Cl)c(Cl)c1)CC3 [Example 4, 3-(3,4-Dichloro-benzyl)-8-methoxy-1,2,3,4-tetrahydro-chromeno[3,4-c]pyridin-5-one]",–,60.9 nM,–,–
"COc1ccc2c3c(c(=O)oc2c1)CN(Cc1ccc([N+](=O)[O-])cc1)CC3 [Example 5, 8-Methoxy-3-(4-nitro-benzyl)-1,2,3,4-tetrahydro-chromeno[3,4-c]pyridin-5-one]",–,7.53 nM,> 5880 nM,–
"COc1cc2oc(=O)c3c(c2cc1OC)CCN(Cc1ccccc1)C3 [Example 6, 3-Benzyl-8,9-dimethoxy-1,2,3,4-tetrahydro-chromeno[3,4-c]pyridin-5-one]",–,59 nM,–,–
"Cc1cc2oc(=O)c3c(c2cc1O)CCN(Cc1ccccc1)C3 [Example 7, 3-Benzyl-9-hydroxy-8-methyl-1,2,3,4-tetrahydro-chromeno[3,4-c]pyridin-5-onehydrochloride]",295 nM,8.01 nM,1900 nM,–
"Cc1c(O)cc2oc(=O)c3c(c2c1O)CCN(Cc1ccccc1)C3 [Example 8, 3-Benzyl-8,10-dihydroxy-9-methyl-1,2,3,4-tetrahydro-chromeno[3,4-c]pyridin-5-one hydrochloride]",–,44.3 nM,–,–
"COc1ccc2c3c(c(=O)oc2c1)CN(Cc1ccc(Cl)cc1)CC3 [Example 9, 3-(4-Chloro-benzyl)-8-methoxy-1,2,3,4-tetrahydro-chromeno[3,4-c]pyridin-5-one]",11700 nM,7.3 nM,> 5880 nM,–
"COc1ccc2c3c(c(=O)oc2c1)CN(Cc1ccncc1)CC3 [Example 10, 8-Methoxy-3-pyridin-4-ylmethyl-1,2,3,4-tetrahydro-chromeno[3,4-c]pyridin-5-one]",–,73.5 nM,–,–
"COc1ccc2c3c(c(=O)oc2c1)CN(Cc1ccnc2ccccc12)CC3 [Example 11, 8-Methoxy-3-quinolin-4-ylmethyl-1,2,3,4-tetrahydro-chromeno[3,4-c]pyridin-5-one]",–,34.3 nM,–,–
"COc1ccc2c3c(c(=O)oc2c1)CN(Cc1cc(OC)c(OC)c(OC)c1)CC3 [Example 12, 8-Methoxy-3-(3,4,5-trimethoxy-benzyl)-1,2,3,4-tetrahydro-chromeno[3,4-c]pyridin-5-one]",3670 nM,21.3 nM,2670 nM,–
"COc1ccc2c3c(c(=O)oc2c1)CN(Cc1ccc(C(F)(F)F)cc1)CC3 [Example 13, 8-Methoxy-3-(4-trifluoromethyl-benzyl)-1,2,3,4-tetrahydro-chromeno[3,4-c]pyridin-5-one]",966 nM,8.18 nM,–,–
"COc1ccc(CN2CCc3c(c(=O)oc4cc(OC)ccc34)C2)cc1 [Example 14, 8-Methoxy-3-(4-methoxy-benzyl)-1,2,3,4-tetrahydro-chromeno[3,4-c]pyridin-5-one]",–,84.3 nM,–,–
"COc1ccc2c3c(c(=O)oc2c1)CN(Cc1cccc(Cl)c1)CC3 [Example 15, 3-(3-Chloro-benzyl)-8-methoxy-1,2,3,4-tetrahydro-chromeno[3,4-c]pyridin-5-one]",2630 nM,17.2 nM,–,–
"COc1ccc2c3c(c(=O)oc2c1)CN(Cc1ccccc1Cl)CC3 [Example 16, 3-(2-Chloro-benzyl)-8-methoxy-1,2,3,4-tetrahydro-chromeno[3,4-c]pyridin-5-one]",2610 nM,33.9 nM,> 5880 nM,–
"Cc1ccc2c3c(c(=O)oc2c1)CN(Cc1ccccc1)CC3 [Example 17, 3-Benzyl-8-methyl-1,2,3,4-tetrahydro-chromeno[3,4-c]pyridin-5-one]",338 nM,3.59 nM,–,–
"COc1ccc2c3c(c(=O)oc2c1)CN(Cc1cccnc1)CC3 [Example 18, 8-Methoxy-3-pyridin-3-ylmethyl-1,2,3,4-tetrahydro-chromeno[3,4-c]pyridin-5-one]",–,21.3 nM,3980 nM,–
"COc1ccc2c3c(c(=O)oc2c1)CN(Cc1ccccn1)CC3 [Example 19, 8-Methoxy-3-pyridin-2-ylmethyl-1,2,3,4-tetrahydro-chromeno[3,4-c]pyridin-5-one]",–,48 nM,–,–
"Cc1ccc2c3c(c(=O)oc2c1)CN(Cc1ccc(Cl)cc1)CC3 [Example 20, 3-(4-Chloro-benzyl)-8-methyl-1,2,3,4-tetrahydro-chromeno[3,4-c]pyridin-5-one]",–,10.6 nM,–,–
"COc1cc2oc(=O)c3c(c2cc1OC)CCN(Cc1ccc(Cl)cc1)C3 [Example 21, 3-(4-Chloro-benzyl)-8,9-dimethoxy-1,2,3,4-tetrahydro-chromeno[3,4-c]pyridin-5-one]",–,8.46 nM,> 5880 nM,–
"COc1ccc2c3c(c(=O)oc2c1)CN(CCc1ccccc1)CC3 [Example 22, 8-Methoxy-3-phenethyl-1,2,3,4-tetrahydro-chromeno[3,4-c]pyridin-5-one]",591 nM,6.87 nM,> 5880 nM,–
"COc1cc2oc(=O)c3c(c2cc1OC)CCN(CCc1ccccc1)C3 [Example 23, 8,9-Dimethoxy-3-phenethyl-1,2,3,4-tetrahydro-chromeno[3,4-c]pyridin-5-one hydrochloride]",–,32.6 nM,–,–
"COc1ccc2c3c(c(=O)oc2c1OC)CN(Cc1ccccc1)CC3 [Example 24, 3-Benzyl-7,8-dimethoxy-1,2,3,4-tetrahydro-chromeno[3,4-c]pyridin-5-one]",–,16.2 nM,–,–
CN1CCN(C2=Nc3cc(Cl)ccc3Nc3ccccc32)CC1 [clozapine],–,–,–,higher affinity for the dopamine D4 receptor than for the D2 receptor [4]: 10 fold; improvement of positive and negative symptoms of schizophrenia [5]: improves both the positive and negative symptoms of schizophrenia; incidence of extrapyramidal side effects [5]: low incidence of extrapyramidal side effects

# From patent US5760050A, “Antipsychotic method utilizing certain tetrahydrochromeno[3,4-c]pyridin-5-ones” (Warner-Lambert Company, priority 1997, dated 1998)
